Results reported in US20230398130A1, “METHODS AND COMPOSITIONS FOR DIFFERENTIATING STEM CELLS” (Massachusetts Institute of Technology, priority 2020, published 2023).

Legend:
ISC-enriched organoids [1] = experiment: Primary screen, 384-well 2.5-D organoid differentiation (ENR+CD, 6 days, Target Selective Inhibitor Library, vs whole-plate median): ATP (CellTiter-Glo 3D, CTG); settings: for Dose.FC.CTG (log 2 fold change, ATP): vs plate median
ISC-enriched organoids [2] = experiment: Primary screen, 384-well 2.5-D organoid differentiation (ENR+CD, 6 days): basal lysozyme secretion (LYZ.NS); assay type: cell-based, murine; settings: for Dose.FC.LYZ.NS (log 2 fold change, basal lysozyme secretion): vs plate median
From the text: (§1) High-throughput screening.

ISC-enriched organoids [3] = experiment: Primary screen, 384-well 2.5-D organoid differentiation (ENR+CD, 6 days): carbachol-induced lysozyme secretion (LYZ.S); assay type: cell-based, murine; settings: vs plate median
From the text: as §1

Structure (SMILES)	Z.CTG (standard z score) (ISC-enriched organoids [1]; dose 0.08 uM)	Dose.FC.CTG (log 2 fold change, ATP) (ISC-enriched organoids [1]; dose 0.08 uM)	Z.CTG (standard z score) (ISC-enriched organoids [1]; dose 0.40 uM)	Dose.FC.CTG (log 2 fold change, ATP) (ISC-enriched organoids [1]; dose 0.40 uM)	Z.CTG (standard z score) (ISC-enriched organoids [1]; dose 2.00 uM)	Dose.FC.CTG (log 2 fold change, ATP) (ISC-enriched organoids [1]; dose 2.00 uM)	Z.CTG (standard z score) (ISC-enriched organoids [1]; dose 10.00 uM)	Dose.FC.CTG (log 2 fold change, ATP) (ISC-enriched organoids [1]; dose 10.00 uM)	Z.LYZ.NS (standard z score) (ISC-enriched organoids [2]; dose 0.08 uM)	Dose.FC.LYZ.NS (log 2 fold change, basal lysozyme secretion) (ISC-enriched organoids [2]; dose 0.08 uM)	Z.LYZ.NS (standard z score) (ISC-enriched organoids [2]; dose 0.40 uM)	Dose.FC.LYZ.NS (log 2 fold change, basal lysozyme secretion) (ISC-enriched organoids [2]; dose 0.40 uM)	Z.LYZ.NS (standard z score) (ISC-enriched organoids [2]; dose 2.00 uM)	Dose.FC.LYZ.NS (log 2 fold change, basal lysozyme secretion) (ISC-enriched organoids [2]; dose 2.00 uM)	Z.LYZ.NS (standard z score) (ISC-enriched organoids [2]; dose 10.00 uM)	Dose.FC.LYZ.NS (log 2 fold change, basal lysozyme secretion) (ISC-enriched organoids [2]; dose 10.00 uM)	Dose.FC.LYZ.S (log 2 fold change, carbachol-induced lysozyme secretion) (ISC-enriched organoids [3]; dose 0.08 uM)	Dose.FC.LYZ.S (log 2 fold change, carbachol-induced lysozyme secretion) (ISC-enriched organoids [3]; dose 0.40 uM)	Dose.FC.LYZ.S (log 2 fold change, carbachol-induced lysozyme secretion) (ISC-enriched organoids [3]; dose 2.00 uM)	Dose.FC.LYZ.S (log 2 fold change, carbachol-induced lysozyme secretion) (ISC-enriched organoids [3]; dose 10.00 uM)
C[C@@H]1CCN(C(=O)CC#N)C[C@@H]1N(C)c1ncnc2[nH]ccc12 [Tofacitinib (CP-690550, Tasocitinib)]	0.312	0.130	0.595	0.249	0.278	0.117	0.563	0.236	−0.146	−0.017	−0.132	−0.015	−0.061	−0.007	−0.036	−0.004	0.022	0.010	0.025	0.010
CC(C)C[C@@H](C(=O)N[C@H](C(=O)OC1CCCC1)c1ccccc1)[C@H](O)C(=O)NO [Tosedostat (CHR2797)]	−0.232	−0.097	0.123	0.051	−0.480	−0.201	−1.117	−0.468	−0.022	−0.002	−0.925	−0.106	−0.432	−0.050	−1.499	−0.172	−0.027	−0.134	−0.128	−0.276
CC(/C=C/C(=O)NO)=C\[C@@H](C)C(=O)c1ccc(N(C)C)cc1 [Trichostatin A (TSA)]	0.457	0.191	−1.913	−0.801	−2.159	−0.904	−1.974	−0.826	−0.554	−0.064	−1.697	−0.195	−1.334	−0.153	−1.298	−0.149	−0.124	−0.254	−0.210	−0.202
O=C(O[C@H]1C[C@H]2CC[C@@H](C1)[N+]21CCCC1)C(O)(c1ccccc1)c1ccccc1 [Trospium chloride]	0.199	0.083	−0.073	−0.031	0.477	0.200	0.354	0.148	1.470	0.169	1.895	0.218	−0.017	−0.002	0.885	0.102	0.119	0.117	−0.008	0.084
CC(C)(C)c1cc(/C=C(\C#N)C(N)=S)cc(C(C)(C)C)c1O [Tyrphostin AG 879]	−0.828	−0.347	−0.569	−0.238	−0.554	−0.232	−0.879	−0.368	0.088	0.010	−0.680	−0.078	−0.698	−0.080	−0.960	−0.110	−0.083	−0.084	−0.051	−0.123
CCO.N#CC(=C(/N)Sc1ccccc1N)/C(C#N)=C(\N)Sc1ccccc1N [U0126-EtOH]	−0.835	−0.350	−1.227	−0.514	−1.138	−0.476	−1.887	−0.790	0.859	0.099	0.163	0.019	−0.389	−0.045	−1.021	−0.117	0.114	0.075	−0.071	−0.165
O=C(c1cncc(Br)c1)N1CCC(N2CCCC2)CC1 [UNC669]	−0.226	−0.095	0.228	0.096	−0.561	−0.235	0.174	0.073	0.578	0.066	−0.048	−0.006	0.606	0.070	0.249	0.029	0.047	−0.029	0.025	0.002
